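In this assay, cells in 96-well plates receive the compound at five concentrations for 48 hours. Endpoints are linearly interpolated between the surrounding concentrations. GI50 is the concentration that inhibits growth by half.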 The source made the active and inactive calls. Cut-off read from the data, not from the text of the source: active = GI50 up to about 1.1 µM and inactive = higher.
Legend:
Assay in all cases: NCI tumour cell line growth inhibition, 48 h
MOLT-4 = tested on: MOLT-4
NCI-H226 = tested on: NCI-H226
T47D = tested on: T47D
COLO 205 = tested on: COLO 205
UO-31 = tested on: UO-31
HCT-116 = tested on: HCT-116
NCI-H460 = tested on: NCI-H460
SK-MEL-28 = tested on: SK-MEL-28
UACC-257 = tested on: UACC-257
MDA-MB-231 = tested on: MDA-MB-231
A498 = tested on: A498
HOP-92 = tested on: HOP-92
Hs-578T = tested on: Hs-578T
SN12C = tested on: SN12C
UACC-62 = tested on: UACC-62
CAKI-1 = tested on: CAKI-1
ACHN = tested on: ACHN
MDA-N = tested on: MDA-N

Measured: GI50

O=S(=O)(c1cc(Cl)ccc1Cl)n1ccnc1
inactive: MOLT-4 32.6 µM | NCI-H226 14.5 µM | T47D 48.3 µM | COLO 205 17.9 µM | UO-31 85.5 µM | HCT-116 31.3 µM | NCI-H460 25.9 µM | SK-MEL-28 > 100 µM | UACC-257 26.7 µM | MDA-MB-231 23.4 µM | A498 31 µM | HOP-92 39.9 µM | Hs-578T 51.4 µM | SN12C 30.2 µM | UACC-62 33.1 µM | CAKI-1 39.7 µM | ACHN 76.7 µM

CN(C)c1ccc(/C=N/Nc2nc3ccccc3c(=O)n2-c2ccccc2)cc1
inactive: MOLT-4 > 100 µM | NCI-H226 > 100 µM | T47D > 100 µM | COLO 205 > 100 µM | UO-31 > 100 µM | HCT-116 51.5 µM | NCI-H460 > 100 µM | SK-MEL-28 > 100 µM | UACC-257 > 100 µM | MDA-MB-231 63 µM | MDA-N 74.3 µM | A498 63.2 µM | HOP-92 31 µM | SN12C > 100 µM | UACC-62 28.6 µM | CAKI-1 > 100 µM | ACHN 67.3 µM

C[N+](C)(C)CC(=O)N/N=C(/Cc1nc2ccc([N+](=O)[O-])cc2nc1O)C(=O)Nc1cc(C(F)(F)F)ccc1Cl
inactive: MOLT-4 > 100 µM | COLO 205 > 100 µM | UO-31 40.8 µM | HCT-116 > 100 µM | NCI-H460 > 100 µM | SK-MEL-28 > 100 µM | UACC-257 > 100 µM | A498 > 100 µM | HOP-92 62.1 µM | SN12C > 100 µM | UACC-62 94.2 µM | CAKI-1 > 100 µM | ACHN > 100 µM

CCOP(=O)(/C=C/n1cc(C)c(=O)[nH]c1=O)OCC
inactive: MOLT-4 > 100 µM | NCI-H226 > 100 µM | T47D > 100 µM | COLO 205 > 100 µM | HCT-116 > 100 µM | NCI-H460 > 100 µM | SK-MEL-28 > 100 µM | UACC-257 > 100 µM | MDA-MB-231 > 100 µM | MDA-N > 100 µM | A498 > 100 µM | SN12C > 100 µM | UACC-62 > 100 µM | CAKI-1 > 100 µM | ACHN > 100 µM

COc1ccc(C2CC(c3ccc(NS(=O)(=O)c4cc([N+](=O)[O-])ccc4C)cc3)=NN2S(=O)(=O)c2cc([N+](=O)[O-])ccc2C)cc1 (configuration not stated)
inactive: MOLT-4 33.3 µM | NCI-H226 > 100 µM | T47D 71.4 µM | COLO 205 51.4 µM | UO-31 32.1 µM | HCT-116 32.7 µM | NCI-H460 32.4 µM | SK-MEL-28 > 100 µM | UACC-257 30.6 µM | MDA-MB-231 43.6 µM | MDA-N 35.8 µM | A498 49.3 µM | HOP-92 34.3 µM | SN12C 43.5 µM | UACC-62 26.4 µM | CAKI-1 54.2 µM | ACHN 63.4 µM

CC12CC3CC/C(=N\O)C(C1)C3(N1CCOCC1)C/C2=N/O (configuration not stated)
inactive: MOLT-4 > 100 µM | NCI-H226 > 100 µM | T47D > 100 µM | COLO 205 > 100 µM | UO-31 > 100 µM | HCT-116 > 100 µM | NCI-H460 > 100 µM | SK-MEL-28 > 100 µM | UACC-257 > 100 µM | MDA-MB-231 > 100 µM | MDA-N > 100 µM | A498 > 100 µM | HOP-92 > 100 µM | SN12C > 100 µM | UACC-62 > 100 µM | CAKI-1 > 100 µM | ACHN > 100 µM

Cc1ccc(C(=O)N/N=C(\N=N\c2ccccc2[N+](=O)[O-])c2ccc(N(C)C)cc2)cc1
inactive: MOLT-4 > 100 µM | NCI-H226 > 100 µM | COLO 205 > 100 µM | UO-31 89.1 µM | HCT-116 > 100 µM | NCI-H460 66.8 µM | SK-MEL-28 > 100 µM | UACC-257 > 100 µM | MDA-MB-231 > 100 µM | MDA-N > 100 µM | HOP-92 > 100 µM | Hs-578T > 100 µM | SN12C > 100 µM | UACC-62 17.4 µM | CAKI-1 > 100 µM | ACHN > 100 µM

CCOC(=O)c1c(N)n(-c2ccccc2)c(=O)n(-c2ccccc2)c1=O
inactive: MOLT-4 > 100 µM | NCI-H226 > 100 µM | T47D > 100 µM | COLO 205 > 100 µM | UO-31 > 100 µM | NCI-H460 > 100 µM | SK-MEL-28 > 100 µM | UACC-257 > 100 µM | MDA-MB-231 > 100 µM | HOP-92 > 100 µM | Hs-578T > 100 µM | SN12C > 100 µM | UACC-62 > 100 µM | ACHN > 100 µM

O=C(CC(=O)N1N=C(N(c2ccccc2)c2ccccc2)CC1c1ccccc1)Nc1ccc(Cl)cc1 (configuration not stated)
inactive: MOLT-4 > 100 µM | NCI-H226 > 100 µM | T47D > 100 µM | COLO 205 > 100 µM | UO-31 > 100 µM | HCT-116 > 100 µM | NCI-H460 > 100 µM | SK-MEL-28 > 100 µM | UACC-257 > 100 µM | MDA-MB-231 > 100 µM | HOP-92 > 100 µM | Hs-578T > 100 µM | SN12C > 100 µM | UACC-62 > 100 µM | CAKI-1 > 100 µM | ACHN > 100 µM

— ChEMBL document CHEMBL1201862, “PubChem BioAssay data set” (2004)
